Biological target: PIK3CD (Human) (UniProt O00329)
Test: Inhibition of PIK3CD Kinase Activity

PIK3CD (Human), sequence (O00329 whole entry, looked up): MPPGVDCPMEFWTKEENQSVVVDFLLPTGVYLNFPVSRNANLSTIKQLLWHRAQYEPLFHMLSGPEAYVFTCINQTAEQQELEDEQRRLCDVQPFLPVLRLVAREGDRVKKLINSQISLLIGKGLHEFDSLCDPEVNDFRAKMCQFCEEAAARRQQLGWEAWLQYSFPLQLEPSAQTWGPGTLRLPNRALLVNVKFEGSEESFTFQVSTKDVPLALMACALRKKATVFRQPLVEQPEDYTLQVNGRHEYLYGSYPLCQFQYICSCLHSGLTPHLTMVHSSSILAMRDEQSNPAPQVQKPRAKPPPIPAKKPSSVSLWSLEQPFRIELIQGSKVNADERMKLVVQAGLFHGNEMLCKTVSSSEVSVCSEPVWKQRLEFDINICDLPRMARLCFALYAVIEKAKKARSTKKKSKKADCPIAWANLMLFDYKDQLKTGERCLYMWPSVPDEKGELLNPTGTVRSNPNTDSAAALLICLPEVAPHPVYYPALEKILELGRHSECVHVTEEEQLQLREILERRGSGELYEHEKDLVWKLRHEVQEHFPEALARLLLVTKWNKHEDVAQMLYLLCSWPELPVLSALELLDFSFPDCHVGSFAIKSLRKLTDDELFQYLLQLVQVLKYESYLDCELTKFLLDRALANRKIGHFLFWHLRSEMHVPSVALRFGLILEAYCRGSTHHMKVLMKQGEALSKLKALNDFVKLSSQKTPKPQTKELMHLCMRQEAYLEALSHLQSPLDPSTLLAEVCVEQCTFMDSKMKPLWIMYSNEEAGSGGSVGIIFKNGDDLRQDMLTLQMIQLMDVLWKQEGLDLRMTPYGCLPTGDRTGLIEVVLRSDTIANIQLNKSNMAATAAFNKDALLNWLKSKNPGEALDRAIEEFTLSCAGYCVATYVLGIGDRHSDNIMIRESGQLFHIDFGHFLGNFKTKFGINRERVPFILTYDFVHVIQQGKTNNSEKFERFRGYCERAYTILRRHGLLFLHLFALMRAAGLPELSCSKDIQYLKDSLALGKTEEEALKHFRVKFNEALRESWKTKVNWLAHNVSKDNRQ

IC50, < 500 nM:
CCn1c(CN2CCC(N3CCC3=O)CC2)nc2c(N3CCOCC3)nc(-c3c(F)ccc4[nH]ccc34)nc21
CCn1c(CN2CCC3(CC2)CNC(=O)CO3)nc2c(N3CCOCC3)nc(-c3cccc4[nH]ccc34)nc21
Cn1c(CN2CCN(C(C)(C)C(N)=O)CC2)nc2c(N3CCOCC3)nc(-c3c(F)ccc4[nH]ccc34)nc21
CCn1c(CN2CCN(C(C)(C)C(N)=O)CC2)nc2c(N3CCOCC3)nc(-c3c(F)ccc4[nH]ccc34)nc21
CCn1c(CN2CCN(C(C)C)C(=O)C2)nc2c(N3CCOCC3)nc(-c3cccc4[nH]ccc34)nc21
CCn1c(CN2CCC(N3CCCCC3=O)CC2)nc2c(N3CCOCC3)nc(-c3cccc4[nH]ccc34)nc21
CCn1c(CN2CCOC(C)(C)C2)nc2c(N3CCOCC3)nc(-c3c(F)ccc4[nH]ccc34)nc21
CCn1c(CN2CCN(CC(F)(F)F)CC2)nc2c(N3CCOCC3)nc(-c3c(F)ccc4[nH]ccc34)nc21

Source: the Kinase Knowledgebase extract (Sharma et al. 2016)
